Experimental data from ChEMBL document CHEMBL3822368, “Further optimization of the M1 PAM VU0453595: Discovery of novel heterobicyclic core motifs with improved CNS penetration” (Bioorg Med Chem Lett, 2016).
Changes are numbered by the printed parent chain.

How the values were obtained:
[1] = Brain to plasma partition coefficient in Sprague-Dawley rat at 0.20 to 0.25 mg/kg, iv administered through cassette dosing after 0.25 hrs; format: ADME, organism-based; conditions: for Kp at 0.25 h: Sprague-Dawley, brain and plasma
[2] = Unbound brain to plasma partition coefficient in Sprague-Dawley rat at 0.20 to 0.25 mg/kg, iv administered through cassette dosing after 0.25 hrs; format: ADME, organism-based; conditions: brain and plasma; for Kp uu at 0.25 h: read-out: K(p,uu,brain)
CHO = test: Selectivity ratio of EC50 for human muscarinic acetylcholine receptor M1 to EC50 for rat muscarinic acetylcholine receptor M1 expressed in CHO cells; format: cell-based
[3] = Fraction unbound in human plasma; format: ADME, cell-free
[4] = target: T1, Muscarinic acetylcholine receptor M1 (Rattus norvegicus) (UniProt P08482); test: Positive allosteric modulation at rat muscarinic acetylcholine receptor M1 expressed in CHO cells assessed as potentiation of acetylcholine-induced calcium mobilization in relative to acetylcholine; format: functional, cell-based
T1 sequence (whole entry): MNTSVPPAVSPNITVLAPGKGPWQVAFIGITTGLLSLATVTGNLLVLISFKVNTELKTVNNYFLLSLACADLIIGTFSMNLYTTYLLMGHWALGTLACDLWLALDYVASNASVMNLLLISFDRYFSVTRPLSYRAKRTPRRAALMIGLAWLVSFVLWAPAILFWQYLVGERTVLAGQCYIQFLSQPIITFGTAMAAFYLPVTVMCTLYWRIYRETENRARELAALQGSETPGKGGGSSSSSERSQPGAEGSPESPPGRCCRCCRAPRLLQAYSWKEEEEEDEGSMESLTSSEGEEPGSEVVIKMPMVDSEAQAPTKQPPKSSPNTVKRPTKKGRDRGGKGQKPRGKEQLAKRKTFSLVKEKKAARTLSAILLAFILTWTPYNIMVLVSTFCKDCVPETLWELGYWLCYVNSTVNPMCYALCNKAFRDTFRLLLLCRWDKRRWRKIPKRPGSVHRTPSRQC

[5] = target: T2, Muscarinic acetylcholine receptor M1 (Rattus norvegicus, UniProt P08482); test: Positive allosteric modulation at rat muscarinic acetylcholine receptor M1 expressed in CHO cells assessed as potentiation of acetylcholine-induced calcium mobilization; format: functional, cell-based
T2 sequence (P08482 whole entry): T1 sequence (whole entry)

[6] = target: T3, Muscarinic acetylcholine receptor M1 (Homo sapiens, UniProt P11229); test: Positive allosteric modulation at human muscarinic acetylcholine receptor M1 expressed in CHO cells assessed as potentiation of acetylcholine-induced calcium mobilization; format: functional, cell-based
T3 sequence (P11229 whole entry): T1 sequence (whole entry) with V5A, S254T, S309P, K320R, G337A, V413I

[7] = Fraction unbound in rat plasma; format: ADME, cell-free
[8] = Fraction unbound in rat brain homogenate; format: ADME, tissue-based
[9] = target: T4, Muscarinic acetylcholine receptor M1 (Homo sapiens) (UniProt P11229); test: Positive allosteric modulation at human muscarinic acetylcholine receptor M1 expressed in CHO cells assessed as potentiation of acetylcholine-induced calcium mobilization relative to acetylcholine; format: functional, cell-based
T4 sequence (whole entry): T1 sequence (whole entry) with V5A, S254T, S309P, K320R, G337A, V413I

[10] = target: T3, Muscarinic acetylcholine receptor M1; test: Positive allosteric modulation at human muscarinic acetylcholine receptor M1 assessed as effect on beta-arrestin recruitment
[11] = target: T3, Muscarinic acetylcholine receptor M1; test: Positive allosteric modulation at human muscarinic acetylcholine receptor M1 assessed as effect on receptor internalization
[12] = target: T4, Muscarinic acetylcholine receptor M1 (Homo sapiens); test: Positive allosteric modulation at human muscarinic acetylcholine receptor M1 assessed as effect on beta-arrestin recruitment relative to acetylcholine

| SMILES | Kp at 0.25 h [1] | Kp uu at 0.25 h [2] | fraction unbound [3] | %max [4] | EC50 [5] | EC50 [6] | fraction unbound [7] | Kpuu at 0.25 h [2] | fraction unbound [8] | %max [9] | EC50 [10] | EC50 [11] | %max [12] | Kp ([1]; brain, 0.25 h, BLD = below limit of detection) | Ratio EC50 (CHO) |
| --- | --- | --- | --- | --- | --- | --- | --- | --- | --- | --- | --- | --- | --- | --- | --- |
| Cn1cc2c(-c3cc(F)c(Cn4cnc5ccccc5c4=O)c(F)c3)cccc2n1 | 0.79 | 0.32 | 0.01 | 45% | 4.7 µM | > 10 µM | 0.01 |  |  |  |  |  |  |  | 2 |
| Cn1cc2c(-c3cc(F)c(CN4CCc5ncccc5C4=O)c(F)c3)cccc2n1 | 0.52 | 0.49 | 0.01 | 52% | 4.3 µM | > 10 µM | 0.01 |  |  |  |  |  |  |  | 2 |
| Cn1cc2c(-c3cc(F)c(Cn4c(=O)cnc5ccccc54)c(F)c3)cccc2n1 | 2.16 | 0.77 | 0.01 | 67% | 4.9 µM | > 10 µM | 0.01 |  |  |  |  |  |  |  | 2 |
| Cn1cnc2ccc(-c3cc(F)c(Cn4cnc5cnccc5c4=O)c(F)c3)cc21 |  |  | 0.06 |  | 5.3 µM |  | 0.04 |  |  |  |  |  |  | BLD |  |
| Cn1cc2c(-c3cc(F)c(Cn4cnc5cnccc5c4=O)c(F)c3)cccc2n1 | 0.77 | 0.6 | 0.01 | 73% | 4.7 µM | 5.3 µM | 0.01 |  |  | 65% | 0.98 µM | > 10 µM | 33% |  | 2 |
| Cn1cc2c(-c3cc(F)c(CN4CCn5nccc5C4=O)c(F)c3)cccc2n1 |  |  |  |  | > 10 µM |  |  |  |  |  |  |  |  |  |  |
| O=c1c2ccncc2ncn1Cc1c(F)cc(-c2ccc3cnccc3c2)cc1F | 3.1 |  | 0.03 |  | 6.1 µM |  | 0.03 | 2.7 |  |  |  |  |  |  |  |

These reach a lower EC50 [5]. Values come first.

| Kp at 0.25 h [1] | Kp uu at 0.25 h [2] | fraction unbound [3] | %max [4] | EC50 [5] | EC50 [6] | fraction unbound [7] | Kpuu at 0.25 h [2] | fraction unbound [8] | %max [9] | EC50 [10] | EC50 [11] | %max [12] | Kp ([1]; brain, 0.25 h, BLD = below limit of detection) | SMILES | Ratio EC50 (CHO) |
| --- | --- | --- | --- | --- | --- | --- | --- | --- | --- | --- | --- | --- | --- | --- | --- |
| 0.4 |  | 0.05 | 50% | 1.7 µM |  | 0.06 | 0.7 | 0.098 |  |  |  |  |  | Cn1cc2cc(-c3cc(F)c(CN4CCn5nccc5C4=O)c(F)c3)ccc2n1 |  |
| 0.3 |  |  | 75% | 3.2 µM | 1.9 µM |  |  |  | 79% | 2.6 µM | > 10 µM | 57% |  | Cn1cc(-c2ccc(CN3Cc4ncccc4C3=O)c(F)c2)cn1 | 3 |
| 1.64 |  | 0.04 |  | 2.8 µM |  | 0.04 | 1.1 |  |  |  |  |  |  | Cn1cc2cc(-c3cc(F)c(Cn4c(=O)cnc5ncccc54)c(F)c3)ccc2n1 |  |
| 0.35 | 0.3 | 0.04 | 50% | 1.7 µM | > 10 µM | 0.08 |  |  |  |  |  |  |  | Cn1cc2c(-c3cc(F)c(CN4C=CC5=NCCN5C4=O)c(F)c3)cccc2n1 | 2 |
